Experimental data reported in patent US8247211B2, “Glycopeptide antibiotics” (American Cyanamid Company, priority 2001, dated 2012).
In brackets after ≈: the same amount, converted by molar mass.

Legend:
Enterococcus sp. = assay: In vitro antibacterial evaluation: minimum inhibitory concentration (MIC), broth dilution method; assay type: cell-based; conditions: for MIC Enterococcus faecalis (ATCC 29212): strain ATCC 29212; for MIC Enterococcus faecium (GC 2243): strain GC 2243; for MIC Enterococcus faecalis (GC 4552): strain GC 4552; for MIC Enterococcus faecalis (GC 4553): strain GC 4553; for MIC Enterococcus faecalis (GC 4554): strain GC 4554; for MIC Enterococcus faecium (GC 4556): strain GC 4556; for MIC Enterococcus faecium (GC 4557): strain GC 4557; for MIC Enterococcus avium (GC 4558): strain GC 4558; for MIC Enterococcus faecalis (GC 6189): strain GC 6189
Outline: (§1)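 Test strains, among them recent clinical isolates carrying methicillin, penicillin and/or vancomycin resistance, were inoculated at 5×10^5 CFU/mL. A broth dilution series spanning 64-0.06 μg/mL in Muller-Hinton II […] (NCCLS M7-A2) defined the MIC as the lowest growth-inhibiting concentration.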

Escherichia coli = assay: as above; assay type: cell-based
Outline: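 Values are minimum inhibitory concentrations, meaning the smallest antibiotic concentration that stops growth of the organism. They come from broth dilution in Muller-Hinton II […] per NCCLS guidance (M7-A2), using 5×10^5 CFU/mL and concentrations from 64 to 0.06 μg/mL.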

Staphylococcus sp. = assay: as above; assay type: cell-based; conditions: broth dilution, 18 hours at 35° C.
Outline: as §1

Streptococcus sp. = assay: as above; assay type: cell-based
Outline: as §1

[1] = system: Staphylococcus aureus-SMITH (GC 4543); assay: Acute lethal infection in mice (ED50); assay type: in vivo; conditions: female CD-1 mice, intraperitoneal challenge, intravenous dose 30 min. after infection, 7 day survival ratios
Outline: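 IP bacterial challenge, female CD-1 mice; inoculum lethal to untreated controls in 24-48 hr. IV dosing in saline or 5% dextrose 30 min post-infection, 5 mice/dose. ED50 from 7-day survival, 3 tests pooled.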

[2] = Anatomic pathology (heart and kidney histopathology) in mice; assay type: in vivo, CD-1 mice; conditions: 20 mg/kg intravenously daily for 9 days, microscopic histopathology on day 10
Outline: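 Histopathology on H&E-stained, paraffin-embedded sections, subjectively scored (slight, mild, moderate, marked, severe) relative to untreated controls. Dosing: glycopeptide antibiotics 20 mg/kg intravenously once daily ×9 days in 20-day-old CD-1 mice, n=5 per group including vehicle.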

CC(c1ccccc1)C1NC(=O)CNC(=O)C(CO)NC(=O)C(C(O)C2CN(Cc3ccc4ccccc4c3)C(=N)N2C2OC(CO)C(O)C(O)C2O)NC(=O)C(C(O)C2CNC(=N)N2)NC(=O)C(Cc2ccc(OC3OC(CO)C(OC4OC5COC6(OC5C(O)C4O)C4CC5CC(C4)CC6C5)C(O)C3O)cc2)NC1=O (centres unmarked) [Example 78]
MIC Enterococcus faecalis (GC 2242) (Enterococcus sp.; Enterococcus faecalis (GC 2242), broth dilution, 18 hours at 35° C.): 16 µg/mL (≈ 10.2 µM) | MIC Enterococcus faecalis (GC 2691) (Enterococcus sp.; Enterococcus faecalis (GC 2691), broth dilution, 18 hours at 35° C.): 16 µg/mL (≈ 10.2 µM) | MIC Enterococcus faecalis (GC 3059) (Enterococcus sp.; Enterococcus faecalis (GC 3059), broth dilution, 18 hours at 35° C.): 16 µg/mL (≈ 10.2 µM) | MIC Enterococcus faecalis (ATCC 29212) (Enterococcus sp.): 8 µg/mL (≈ 5.1 µM) | MIC Enterococcus faecalis (GC 2242) (Enterococcus sp.; strain GC 2242): 16 µg/mL (≈ 10.2 µM) | MIC Enterococcus faecium (GC 2243) (Enterococcus sp.): 8 µg/mL (≈ 5.1 µM) | MIC Enterococcus faecalis (GC 2691) (Enterococcus sp.; strain GC 2691): 16 µg/mL (≈ 10.2 µM) | MIC Enterococcus faecalis (GC 3059) (Enterococcus sp.; strain GC 3059): 16 µg/mL (≈ 10.2 µM) | MIC Enterococcus faecalis (GC 4552) (Enterococcus sp.): 8 µg/mL (≈ 5.1 µM) | MIC Enterococcus faecalis (GC 4553) (Enterococcus sp.): 8 µg/mL (≈ 5.1 µM) | MIC Enterococcus faecalis (GC 4554) (Enterococcus sp.): 16 µg/mL (≈ 10.2 µM) | MIC Enterococcus faecium (GC 4556) (Enterococcus sp.): 16 µg/mL (≈ 10.2 µM) | MIC Enterococcus faecium (GC 4557) (Enterococcus sp.): 2 µg/mL (≈ 1.28 µM) | MIC Enterococcus avium (GC 4558) (Enterococcus sp.): 4 µg/mL (≈ 2.55 µM) | MIC Enterococcus faecalis (GC 6189) (Enterococcus sp.): 16 µg/mL (≈ 10.2 µM) | MIC Escherichia coli (GC 4560) (Escherichia coli; strain GC 4560): 4 µg/mL (≈ 2.55 µM) | MIC Coagulase Negative Staphylococcus (GC 4547) (Staphylococcus sp.): 4 µg/mL (≈ 2.55 µM) | MIC Coagulase Negative Staphylococcus (GC 4548) (Staphylococcus sp.): 4 µg/mL (≈ 2.55 µM) | MIC Coagulase Negative Staphylococcus (GC 4549) (Staphylococcus sp.): 8 µg/mL (≈ 5.1 µM) | MIC Coagulase Negative Staphylococcus (GC 4551) (Staphylococcus sp.): 8 µg/mL (≈ 5.1 µM) | MIC Coagulase Negative Staphylococcus (GC 6257) (Staphylococcus sp.): 2 µg/mL (≈ 1.28 µM) | MIC Staphylococcus aureus (ATCC 29213) (Staphylococcus sp.): 8 µg/mL (≈ 5.1 µM) | MIC Staphylococcus aureus (GC 1131) (Staphylococcus sp.): 8 µg/mL (≈ 5.1 µM) | MIC Staphylococcus aureus (GC 3051) (Staphylococcus sp.): 8 µg/mL (≈ 5.1 µM) | MIC Staphylococcus aureus (GC 3053) (Staphylococcus sp.): 8 µg/mL (≈ 5.1 µM) | MIC Staphylococcus aureus (GC 4541) (Staphylococcus sp.): 4 µg/mL (≈ 2.55 µM) | MIC Staphylococcus aureus (GC 4542) (Staphylococcus sp.): 8 µg/mL (≈ 5.1 µM) | MIC Staphylococcus aureus (GC 4544) (Staphylococcus sp.): 8 µg/mL (≈ 5.1 µM) | MIC Staphylococcus aureus (GC 4545) (Staphylococcus sp.): 8 µg/mL (≈ 5.1 µM) | MIC Staphylococcus aureus SMITH (GC 4543) (Staphylococcus sp.): 4 µg/mL (≈ 2.55 µM) | MIC Staphylococcus haemolyticus (GC 4546) (Staphylococcus sp.): 4 µg/mL (≈ 2.55 µM) | MIC Staphylococcus aureus-SMITH (GC 4543) (Staphylococcus sp.; strain SMITH GC 4543): 4 µg/mL (≈ 2.55 µM) | MIC Streptococcus agalactiae (GC 4564) (Streptococcus sp.; Streptococcus agalactiae (GC 4564), broth dilution, 18 hours at 35° C.): 1 µg/mL (≈ 0.638 µM) | MIC Streptococcus pneumoniae (ATCC 6301) (Streptococcus sp.; Streptococcus pneumoniae (ATCC 6301), broth dilution, 18 hours at 35° C.): 1 µg/mL (≈ 0.638 µM) | MIC Streptococcus pneumoniae (GC 1894) (Streptococcus sp.; Streptococcus pneumoniae (GC 1894), broth dilution, 18 hours at 35° C.): 0.25 µg/mL (≈ 0.159 µM) | MIC Streptococcus pneumoniae (GC 4565) (Streptococcus sp.; Streptococcus pneumoniae (GC 4565), broth dilution, 18 hours at 35° C.): 2 µg/mL (≈ 1.28 µM) | MIC Streptococcus pyogenes (GC 4563) (Streptococcus sp.; Streptococcus pyogenes (GC 4563), broth dilution, 18 hours at 35° C.): 0.5 µg/mL (≈ 0.319 µM) | MIC Streptococcus pneumoniae (ATCC 6301) (Streptococcus sp.; strain ATCC 6301): 1 µg/mL (≈ 0.638 µM) | MIC Streptococcus pneumoniae (GC 1894) (Streptococcus sp.; strain GC 1894): 0.25 µg/mL (≈ 0.159 µM) | MIC Streptococcus pyogenes (GC 4563) (Streptococcus sp.; strain GC 4563): 0.5 µg/mL (≈ 0.319 µM) | MIC Streptococcus agalactiae (GC 4564) (Streptococcus sp.; strain GC 4564): 1 µg/mL (≈ 0.638 µM) | MIC Streptococcus pneumoniae (GC 4565) (Streptococcus sp.; strain GC 4565): 2 µg/mL (≈ 1.28 µM) | median effective dose (ED50), Staphylococcus aureus-SMITH (GC 4543) [1]: 2 mg/kg | Anatomical Pathology (Day 10), Heart [2]: 0 | Anatomical Pathology (Day 10), Kidney [2]: ++

CC(c1ccccc1)C1NC(=O)CNC(=O)C(CO)NC(=O)C(C(O)C2CNC(=N)N2C2OC(CO)C(O)C(O)C2O)NC(=O)C(C(O)C2CNC(=N)N2)NC(=O)C(Cc2ccc(OC3OC(CO)C(OC4OC5COC(c6ccc(C(=O)O)cc6)OC5C(O)C4O)C(O)C3O)cc2)NC1=O (stereo not drawn) [Example 141, Cyclo[glycyl-β-methylphenylalanyl-O-[4-O-[4,6-O-(4-carboxybenzylidene)hexopyranosyl]-hexopyranosyl]tyrosyl-3-(2-iminoimidazolidin-4-yl)seryl-3-(3-hexopyranosyl-2-iminoimidazolidin-4-yl)serylseryl]]
MIC Enterococcus faecalis (ATCC 29212) (Enterococcus sp.): >64 µg/mL | MIC Enterococcus faecalis (GC 2242) (Enterococcus sp.; strain GC 2242): >64 µg/mL | MIC Enterococcus faecium (GC 2243) (Enterococcus sp.): >64 µg/mL | MIC Enterococcus faecalis (GC 2691) (Enterococcus sp.; strain GC 2691): >64 µg/mL | MIC Enterococcus faecalis (GC 3059) (Enterococcus sp.; strain GC 3059): >64 µg/mL | MIC Enterococcus faecalis (GC 4552) (Enterococcus sp.): >64 µg/mL | MIC Enterococcus faecalis (GC 4553) (Enterococcus sp.): >64 µg/mL | MIC Enterococcus faecalis (GC 4554) (Enterococcus sp.): >64 µg/mL | MIC Enterococcus faecium (GC 4556) (Enterococcus sp.): >64 µg/mL | MIC Enterococcus faecium (GC 4557) (Enterococcus sp.): 64 µg/mL (≈ 44.8 µM) | MIC Enterococcus avium (GC 4558) (Enterococcus sp.): >64 µg/mL | MIC Enterococcus faecalis (GC 6189) (Enterococcus sp.): >64 µg/mL | MIC Escherichia coli (ATCC 25922) (Escherichia coli; strain ATCC 25922): >64 µg/mL | MIC Escherichia coli (GC 4559) (Escherichia coli; strain GC 4559): >64 µg/mL | MIC Escherichi coli (GC 4560) (Escherichia coli; strain GC 4560): >64 µg/mL | MIC Coagulase Negative Staphylococcus (GC 4547) (Staphylococcus sp.; 5×10^5 CFU/mL): >64 µg/mL | MIC Coagulase Negative Staphylococcus (GC 4548) (Staphylococcus sp.; 5×10^5 CFU/mL): >64 µg/mL | MIC Coagulase Negative Staphylococcus (GC 4549) (Staphylococcus sp.; 5×10^5 CFU/mL): >64 µg/mL | MIC Coagulase Negative Staphylococcus (GC 4551) (Staphylococcus sp.; 5×10^5 CFU/mL): >64 µg/mL | MIC Coagulase Negative Staphylococcus (GC 6257) (Staphylococcus sp.; 5×10^5 CFU/mL): >64 µg/mL | MIC Staphylococcus aureus (ATCC 29213) (Staphylococcus sp.; 5×10^5 CFU/mL): >64 µg/mL | MIC Staphylococcus aureus (GC 1131) (Staphylococcus sp.; 5×10^5 CFU/mL): >64 µg/mL | MIC Staphylococcus aureus (GC 3051) (Staphylococcus sp.; 5×10^5 CFU/mL): >64 µg/mL | MIC Staphylococcus aureus (GC 3053) (Staphylococcus sp.; 5×10^5 CFU/mL): >64 µg/mL | MIC Staphylococcus aureus (GC 4541) (Staphylococcus sp.; 5×10^5 CFU/mL): >64 µg/mL | MIC Staphylococcus aureus (GC 4542) (Staphylococcus sp.; 5×10^5 CFU/mL): >64 µg/mL | MIC Staphylococcus aureus (GC 4544) (Staphylococcus sp.; 5×10^5 CFU/mL): >64 µg/mL | MIC Staphylococcus aureus (GC 4545) (Staphylococcus sp.; 5×10^5 CFU/mL): >64 µg/mL | MIC Staphylococcus aureus-SMITH (GC 4543) (Staphylococcus sp.; 5×10^5 CFU/mL): >64 µg/mL | MIC Staphylococcus haemolyticus (GC 4546) (Staphylococcus sp.; 5×10^5 CFU/mL): >64 µg/mL | MIC Staphylococcus aureus (ATCC 29213) (Staphylococcus sp.; strain ATCC 29213): >64 µg/mL | MIC Staphylococcus aureus (GC 1131) (Staphylococcus sp.; strain GC 1131): >64 µg/mL | MIC Staphylococcus aureus (GC 3051) (Staphylococcus sp.; strain GC 3051): >64 µg/mL | MIC Staphylococcus aureus (GC 3053) (Staphylococcus sp.; strain GC 3053): >64 µg/mL | MIC Staphylococcus aureus (GC 4541) (Staphylococcus sp.; strain GC 4541): >64 µg/mL | MIC Staphylococcus aureus (GC 4542) (Staphylococcus sp.; strain GC 4542): >64 µg/mL | MIC Staphylococcus aureus-SMITH (GC 4543) (Staphylococcus sp.; strain GC 4543): >64 µg/mL | MIC Staphylococcus aureus (GC 4544) (Staphylococcus sp.; strain GC 4544): >64 µg/mL | MIC Staphylococcus aureus (GC 4545) (Staphylococcus sp.; strain GC 4545): >64 µg/mL | MIC Staphylococcus haemolyticus (GC 4546) (Staphylococcus sp.; strain GC 4546): >64 µg/mL | MIC Coagulase Negative Staphylococcus (GC 4547) (Staphylococcus sp.; strain GC 4547): >64 µg/mL | MIC Coagulase Negative Staphylococcus (GC 4548) (Staphylococcus sp.; strain GC 4548): >64 µg/mL | MIC Coagulase Negative Staphylococcus (GC 4549) (Staphylococcus sp.; strain GC 4549): >64 µg/mL | MIC Coagulase Negative Staphylococcus (GC 4551) (Staphylococcus sp.; strain GC 4551): >64 µg/mL | MIC Coagulase Negative Staphylococcus (GC 6257) (Staphylococcus sp.; strain GC 6257): >64 µg/mL | MIC Streptococcus pneumoniae (ATCC 6301) (Streptococcus sp.; strain ATCC 6301): >64 µg/mL | MIC Streptococcus pneumoniae (GC 1894) (Streptococcus sp.; strain GC 1894): >64 µg/mL | MIC Streptococcus pyogenes (GC 4563) (Streptococcus sp.; strain GC 4563): >64 µg/mL | MIC Streptococcus agalactiae (GC 4564) (Streptococcus sp.; strain GC 4564): >64 µg/mL | MIC Streptococcus pneumoniae (GC 4565) (Streptococcus sp.; strain GC 4565): >64 µg/mL | median effective dose (ED50), Staphylococcus aureus-SMITH (GC 4543) [1]: >8 | Anatomical Pathology (Day 10), Heart [2]: 0 | Anatomical Pathology (Day 10), Kidney [2]: +++
